Measured values as given in patent publication US20100125059A1, “1-BIARYLAZETIDINONE DERIVATIVE” (Teijin Pharma Limited, priority 2007, published 2010).
Like-named read-outs stand apart in the source and are kept apart here.

Tests used:
Caco-2 cells = experiment: Cholesterol absorption inhibition assay (in vitro), [14C] cholesterol mixed micelles; type: cell-based; details: Homo sapiens, 24 hours, read-out: cholesterol absorption inhibitory activity; for inhibition at 10 µM: concentration of 10 μM; for inhibition at 12.5 µM: concentration of 12.5 μM
Procedure: This assay measures cholesterol absorption inhibitory activity by adding mixed micelles containing [^14C] cholesterol to cells and measuring cholesterol taken in the cells as oleic acid cholesteryl ester. The assay is conducted after Caco-2 cells are seeded on multi-well plates and cultured (culture medium: DMEM containing 10% fetal bovine serum, 1% non-essential amino acids, 1% penicillin, and 1% streptomycin) for 2 weeks. To each well, the micelle solution (in an amount required to provide the following final concentrations: 600 μM of sodium oleate, 50 μM of phosphatidyl choline, 5 mM of sodium taurocholate, 2.5 μM of cholesterol, and 2.5 μM of [^14C] cholesterol) and a test compound solution (in an amount required to provide the final concentration of 0.5 to 25 μM) or a solvent as a control are added, and incubation is started at 37° C. 24 hours later, the culture medium is removed, and the lipid component is extracted with hexane/2-propanol (3:2, v/v) and applied onto thin-layer silica gel plates. After drying, each plate is eluted with a mixture of hexane, diethyl ether, and acetic acid in a ratio of 83:16:1. The plates are photoexposed on imaging plates and analyzed using BAS-2500 (FUJIFILM). The amounts of light exposure of the areas corresponding to the cholesteryl ester are calculated. Background is measured using a blank space of the plate. Inhibition rates are calculated using values obtained by subtracting the background values from both values of the control and the test sample, respectively, in accordance with the following equation. A test value is calculated as a percentage (%) with respect to the control.
In the Equation 1, A is the control group, BG is a background, and B is the test compound.
The following results were obtained from the measurement by this method on cholesterol absorption inhibitory activity of the compounds of the present invention. The following results were obtained by the evaluation using concentrations of 10 μM and/or 12.5 μM.

[1] = test system: hamsters fed a high cholesterol diet; experiment: Measurement of lipid lowering effect in hamsters fed a high cholesterol diet; type: in vivo, Male Golden Syrian hamsters; details: Mesocricetus auratus, po, 168 h, gavage once daily, 7 days
Procedure: Male Golden Syrian hamsters are divided into groups each consisting of 6 animals and fed a controlled high cholesterol diet (CE-2 containing 0.5% cholesterol; CLEA Japan, Inc.) for 28 days at most. From the start of feeding of the high cholesterol diet, the test compounds are administered by gavage once daily. For the administration, 0.2 mL of corn oil alone per 100 g (control group) or a solution (or suspension) of the test compound in corn oil at a dose of 0.01 to 10 mg/kg was given. At the same time, a group fed with a normal diet during the same study period is handled as a normal group. 4 hours after the last administration, whole blood is collected from the abdominal aorta under light anesthesia with ether and serum is separated from the blood. Further, livers are harvested, wet liver weights are measured, and part (about 0.5 g) of the harvested livers are extracted and weighed. 2-propanol in an amount 4 times the weight of the extracted livers are added, the resulted mixtures are homogenized, and the centrifuged supernatant are recovered and used as liver-derived samples.
Serum and liver TC concentrations are determined by an enzyme method using L-type Wako CHO•H (Wako Pure Chemical Industries Ltd.) or Cholestest CHO (Daiichi Pure Chemicals Co., Ltd.). Serum TG concentrations are determined by an enzyme method using L-type Wako TG•H (Wako Pure Chemical Industries Ltd.) or Autosera S TG-N (Daiichi Pure Chemicals Co., Ltd.) and a free glycerine elimination method. LDL-C concentrations are determined by a direct method using L-type Wako LDL-C•M (Wako Pure Chemical Industries Ltd.) or Cholestest LDL (Daiichi Pure Chemicals Co., Ltd.). Human serum was commonly used as a sample for the calibration curve for determinations of serum and liver TC concentrations, serum TG concentration, and serum LDL-C concentration. The effect of the test compound is shown by a suppression rate (%) of an increase in serum TC concentration due to feeding of the high cholesterol diet, a serum TG lowering rate (%), a suppression rate (%) of an increase in serum LDL-C concentration due to feeding of the high cholesterol diet, and a suppression rate (%) of an increase in liver TC concentration due to feeding of the high cholesterol diet calculated in accordance with the following equations.
In the Equation 2, A is the control group, B is the test compound group, and C is the normal group.
In the Equation 3, A is the control group, B is the test compound group, and C is the normal group.
In the Equation 4, A is the control group, B is the test compound group, and C is the normal group.
In the Equation 5, A is the control group, and B is the test compound group.
The following results were obtained from the study by this method on the effects of lowering serum TC, LDL-C, and TG, and liver TC in the hamsters fed with a high cholesterol diet which were given the test compounds for 7 days.
The compounds in which pyridyl of compound of example 51 and 55 was exchanged for phenyl, were used as comparative compound 1 and 2, respectively. In the same method as Example 112, the suppression rate (%) of an increase in serum TC concentration of comparative compound 1 and 2 were calculated.

[2] = read-out: liver TC lowering effect (suppression rate of an increase in liver TC concentration)
[3] = read-out: serum TC lowering effect (suppression rate of an increase in serum TC concentration)
[4] = read-out: serum LDL-C lowering effect (suppression rate of an increase in serum LDL-C concentration)

In the case of `O=C1[C@H](SC[C@H](O)c2ccc(C(F)(F)F)cc2)[C@@H](c2ccc(O)cc2)N1c1ccc(-c2cccnc2)cc1` [Example 43, (3R,4R)-3-{(2R)-2-hydroxy-2-[4-(trifluoromethyl)phenyl]ethylthio}-4-(4-hydroxyphenyl)-1-[4-(pyridin-3-yl)phenyl]azetidin-2-one], the inhibition at 10 µM (Caco-2 cells) is reported as no less than 50%.
With `Cc1ncccc1-c1ccc(N2C(=O)[C@H](SC[C@H](O)c3ccc(F)cc3)[C@H]2c2ccc(O)cc2)cc1` [Example 54, (3R,4R)-3-[(2R)-2-(4-fluorophenyl)-2-hydroxyethylthio]-4-(4-hydroxyphenyl)-1-[4-(2-methylpyridin-3-yl)phenyl]azetidin-2-one] the inhibition at 10 µM (Caco-2 cells) was no less than 50%.
`COc1cnccc1-c1ccc(N2C(=O)[C@H](SC[C@H](O)c3ccc(F)cc3)[C@H]2c2ccc(O)cc2)cc1` [Example 23, (3R,4R)-3-[(2R)-2-(4-fluorophenyl)-2-hydroxyethylthio]-4-(4-hydroxyphenyl)-1-[4-(3-methoxypyridin-4-yl)phenyl]azetidin-2-one] was tested, and the inhibition at 10 µM (Caco-2 cells) was no less than 50%.
In the case of `CN(C)c1ccc(-c2ccc(N3C(=O)[C@H](SC[C@H](O)c4ccc(Cl)cc4)[C@H]3c3ccc(O)cc3)cc2)cn1` [Example 88, (3R,4R)-3-[(2R)-2-(4-chlorophenyl)-2-hydroxyethylthio]-1-[4-(6-dimethylaminopyridin-3-yl)phenyl]-4-(4-hydroxyphenyl)azetidin-2-one], the inhibition at 12.5 µM (Caco-2 cells) is reported as no less than 60%.
`O=C1[C@H](SC[C@H](O)c2ccc(F)cc2)[C@@H](c2ccc(O)cc2)N1c1ccc(-c2ccncc2)cc1` [Example 11, (3R,4R)-3-[(2R)-2-(4-fluorophenyl)-2-hydroxyethylthio]-4-(4-hydroxyphenyl)-1-[4-(pyridin-4-yl)phenyl]azetidin-2-one] gave an inhibition at 10 µM (Caco-2 cells) of no less than 50%.
For `CC(=O)c1cncc(-c2ccc(N3C(=O)[C@H](SC[C@H](O)c4ccc(Cl)cc4)[C@H]3c3ccc(O)cc3)cc2)c1` [Example 105, (3R,4R)-3-[(2R)-2-(4-chlorophenyl)-2-hydroxyethylthio]-1-[4-(5-acetylpyridin-3-yl)phenyl]-4-(4-hydroxyphenyl)azetidin-2-one], the inhibition at 12.5 µM (Caco-2 cells) was no less than 60%.
With `O=C1[C@H](SC[C@H](O)c2ccc(F)cc2)[C@@H](c2ccc(O)c(Cl)c2)N1c1ccc(-c2cccnc2)cc1` [Example 39, (3R,4R)-3-[(2R)-2-(4-fluorophenyl)-2-hydroxyethylthio]-4-(3-chloro-4-hydroxyphenyl)-1-[4-(pyridin-3-yl)phenyl]azetidin-2-one] the inhibition at 10 µM (Caco-2 cells) was no less than 50%.
`O=C1[C@H](SC[C@H](O)c2ccc(F)cc2)[C@@H](c2ccc(O)cc2)N1c1ccc(-c2cccc3[nH]ccc23)cc1` [Example 13, (3R,4R)-3-[(2R)-2-(4-fluorophenyl)-2-hydroxyethylthio]-4-(4-hydroxyphenyl)-1-[4-(indol-4-yl)phenyl]azetidin-2-one] was tested, and the inhibition at 10 µM (Caco-2 cells) was no less than 50%.
`COc1ncccc1-c1ccc(N2C(=O)[C@H](SC[C@H](O)c3ccc(Cl)cc3)[C@H]2c2ccc(O)cc2)cc1` [Example 57, (3R,4R)-3-[(2R)-2-(4-chlorophenyl)-2-hydroxyethylthio]-4-(4-hydroxyphenyl)-1-[4-(2-methoxypyridin-3-yl)phenyl]azetidin-2-one] was tested, and the inhibition at 10 µM (Caco-2 cells) was no less than 50% and the inhibition at 12.5 µM (Caco-2 cells) was no less than 60%.
Work on `O=C1[C@H](SCCc2ccccc2)[C@@H](c2ccc(O)cc2)N1c1ccc(-c2cccnc2)cc1` [Example 4, (3R,4R)-4-(4-hydroxyphenyl)-3-(2-phenylethylthio)-1-[4-(pyridin-3-yl)phenyl]azetidin-2-one] yielded an inhibition at 10 µM (Caco-2 cells) of no less than 50% and an inhibition at 12.5 µM (Caco-2 cells) of no less than 60%.
With `O=C1[C@H](SC[C@H](O)c2ccc(Cl)cc2)[C@@H](c2ccc(O)cc2O)N1c1ccc(-c2cncc(Cl)c2)cc1` [Example 96, (3R,4R)-3-[(2R)-2-(4-chlorophenyl)-2-hydroxyethylthio]-4-(2,4-dihydroxyphenyl)-1-[4-(5-chloropyridin-3-yl)phenyl]azetidin-2-one] the inhibition in vivo at 0.01 mg/kg [1, 2] was no less than 30%.
For `Cc1cc(O)ccc1[C@@H]1[C@@H](SC[C@H](O)c2ccc(F)cc2)C(=O)N1c1ccc(-c2cncc(F)c2)cc1` [Example 74, (3R,4R)-3-[(2R)-2-(4-fluorophenyl)-2-hydroxyethylthio]-1-[4-(5-fluoropyridin-3-yl)phenyl]-4-(4-hydroxy-2-methylphenyl)azetidin-2-one], the inhibition in vivo at 0.01 mg/kg [1, 2] was no less than 30%, the inhibition in vivo at 0.01 mg/kg [1, 3] was no less than 30% and the inhibition in vivo at 0.1 mg/kg [1, 2] was no less than 50%. It also gave an inhibition in vivo at 0.1 mg/kg [1, 4] of no less than 50%.
`O=C1[C@H](SC[C@H](O)c2ccc3c(c2)OCO3)[C@@H](c2ccc(O)cc2)N1c1ccc(-c2cccnc2)cc1` [Example 33, (3R,4R)-3-[(2R)-2-(2H-benzo[3,4-d]1,3-dioxolen-5-yl)-2-hydroxyethylthio]-4-(4-hydroxyphenyl)-1-[4-(pyridin-3-yl)phenyl]azetidin-2-one] showed an inhibition in vivo at 0.1 mg/kg [1, 4] of no less than 50% and an inhibition in vivo at 0.1 mg/kg [1, 3] of no less than 50%.
With `N#Cc1cncc(-c2ccc(N3C(=O)[C@H](SC[C@H](O)c4ccc(Cl)cc4)[C@H]3c3ccc(O)cc3O)cc2)c1` [Example 65, 5-(4-{(3R,4R)-3-[(2R)-2-(4-chlorophenyl)-2-hydroxyethylthio]-4-(2,4-dihydroxyphenyl)-2-oxoazetidinyl}phenyl)pyridine-3-carbonitrile] the inhibition in vivo at 0.1 mg/kg [1, 4] was no less than 50% and the inhibition in vivo at 0.1 mg/kg [1, 3] was no less than 50%.
With `O=C1[C@H](SC[C@H](O)c2ccc(F)cc2)[C@@H](c2ccc(O)cc2)N1c1ccc(-c2cncnc2)cc1` [Example 10, (3R,4R)-3-[(2R)-2-(4-fluorophenyl)-2-hydroxyethylthio]-4-(4-hydroxyphenyl)-1-[4-(pyrimidin-5-yl)phenyl]azetidin-2-one] the inhibition in vivo at 0.1 mg/kg [1, 3] was no less than 50% and the inhibition in vivo at 0.1 mg/kg ([1]; read-out: serum TG lowering effect (serum TG lowering rate)) was no less than 20%.
For `O=C1[C@H](SC[C@H](O)c2ccc(Cl)cc2)[C@@H](c2ccc(O)cc2)N1c1ccc(-c2cnccn2)cc1` [Example 104, (3R,4R)-3-[(2R)-2-(4-chlorophenyl)-2-hydroxyethylthio]-4-(4-hydroxyphenyl)-1-[4-(pyrazin-2-yl)phenyl]azetidin-2-one], the inhibition in vivo at 0.01 mg/kg [1, 4] was no less than 30%, the inhibition in vivo at 0.01 mg/kg [1, 3] was no less than 30% and the inhibition in vivo at 0.1 mg/kg [1, 2] was no less than 50%.
